Measured values taken from patent publication US8791132B2, “Compounds and methods for treatment of hypertension” (Medivation Technologies, Inc., priority 2011, dated 2014).

How the values were obtained:
[1] = target: T1, human recombinant adrenergic α2B receptor (Homo sapiens, UniProt P18089); test: Radioligand binding, adrenergic α2B ([3H]Rauwolscine); conditions: 0.1 μM compound; read-out: Percentage inhibition of ligand binding, Adrenergic α2B
T1 construct: expressed in transfected cells; host or cells: CHO-K1
T1 sequence (P18089 1-450): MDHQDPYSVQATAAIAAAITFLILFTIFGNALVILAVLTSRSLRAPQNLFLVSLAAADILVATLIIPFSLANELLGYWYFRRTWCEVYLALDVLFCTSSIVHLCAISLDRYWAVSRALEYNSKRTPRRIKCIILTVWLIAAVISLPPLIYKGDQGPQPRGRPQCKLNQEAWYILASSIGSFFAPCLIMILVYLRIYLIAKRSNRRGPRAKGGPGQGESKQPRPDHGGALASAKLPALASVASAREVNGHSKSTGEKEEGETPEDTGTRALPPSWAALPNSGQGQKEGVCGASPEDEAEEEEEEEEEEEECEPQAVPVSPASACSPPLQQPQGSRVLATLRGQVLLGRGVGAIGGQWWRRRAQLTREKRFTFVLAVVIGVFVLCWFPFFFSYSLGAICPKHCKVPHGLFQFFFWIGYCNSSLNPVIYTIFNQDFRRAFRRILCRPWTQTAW
Outline: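 Membranes from CHO-K1 cells expressing human recombinant α2B, in 50 mM Tris-HCl pH 7.4, 12.5 mM MgCl2, 1 mM EDTA, 0.2% BSA, incubated with compound and 2.5 nM [3H]Rauwolscine, 60 min, 25 °C.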

[2] = target: T2, human recombinant adrenergic α1D receptor (Homo sapiens, UniProt P25100); test: Radioligand binding, adrenergic α1D ([3H]Prazosin); conditions: 0.1 μM compound; read-out: Percentage inhibition of ligand binding, Adrenergic α1D
T2 construct: expressed in transfected cells; host or cells: HEK-293
T2 sequence (P25100 1-572): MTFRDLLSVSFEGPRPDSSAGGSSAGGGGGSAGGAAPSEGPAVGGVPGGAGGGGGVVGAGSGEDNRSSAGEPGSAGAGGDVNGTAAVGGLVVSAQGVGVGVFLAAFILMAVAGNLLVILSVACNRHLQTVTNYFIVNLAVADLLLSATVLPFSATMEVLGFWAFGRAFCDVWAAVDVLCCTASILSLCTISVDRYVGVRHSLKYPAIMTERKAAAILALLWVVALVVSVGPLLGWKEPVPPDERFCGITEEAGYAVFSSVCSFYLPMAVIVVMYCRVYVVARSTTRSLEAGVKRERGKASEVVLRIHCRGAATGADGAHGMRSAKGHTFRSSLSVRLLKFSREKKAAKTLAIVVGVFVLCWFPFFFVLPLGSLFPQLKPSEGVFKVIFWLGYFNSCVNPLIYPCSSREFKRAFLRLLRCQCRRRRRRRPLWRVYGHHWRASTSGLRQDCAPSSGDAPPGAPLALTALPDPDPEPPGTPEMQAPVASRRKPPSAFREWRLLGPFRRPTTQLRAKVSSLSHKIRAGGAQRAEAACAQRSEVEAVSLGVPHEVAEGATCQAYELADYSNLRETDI
Procedure: Compounds were incubated with 0.6 nM [3H]Prazosin for 60 min at 25° C. Non-specific binding was estimated in the presence of 10 μM phentolamine. Receptor proteins were filtered and washed, the filters were then counted to determine [3H]Prazosin specifically bound. […] Biochemical assay results are presented as the percent inhibition of specific binding in Table B1.

[3] = target: T3, rat adrenergic α1B receptor (Rattus norvegicus, UniProt P15823); test: Radioligand binding, adrenergic α1B ([3H]Prazosin); conditions: 0.1 μM compound; read-out: Percentage inhibition of ligand binding, Adrenergic α1B
T3 construct: rat adrenergic α1B receptor obtained from Wistar Rat liver; from tissue; host or cells: Wistar rat liver
T3 sequence (P15823 1-515): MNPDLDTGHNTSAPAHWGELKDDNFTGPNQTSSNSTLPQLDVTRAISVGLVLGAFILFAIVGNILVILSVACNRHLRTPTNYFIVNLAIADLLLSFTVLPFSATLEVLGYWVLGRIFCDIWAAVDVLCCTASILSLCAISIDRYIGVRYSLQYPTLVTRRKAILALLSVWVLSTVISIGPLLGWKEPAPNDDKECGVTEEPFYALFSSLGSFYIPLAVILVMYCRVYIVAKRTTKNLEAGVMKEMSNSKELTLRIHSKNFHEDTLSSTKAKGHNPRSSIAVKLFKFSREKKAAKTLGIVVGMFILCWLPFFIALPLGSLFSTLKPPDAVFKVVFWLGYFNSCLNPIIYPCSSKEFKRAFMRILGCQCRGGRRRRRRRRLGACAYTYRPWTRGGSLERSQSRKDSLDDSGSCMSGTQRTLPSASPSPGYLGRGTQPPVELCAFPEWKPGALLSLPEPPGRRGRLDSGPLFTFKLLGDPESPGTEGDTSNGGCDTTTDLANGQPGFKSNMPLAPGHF
Outline: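 Incubation ran 60 min at 25 °C in Tris-HCl buffer (50 mM, pH 7.4, 0.5 mM EDTA) with Wistar rat liver α1B receptor. 10 μM phentolamine set non-specific binding.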

[4] = target: T4, human recombinant adrenergic α2A receptor (Homo sapiens, UniProt P08913); test: Radioligand binding, adrenergic α2A ([3H]MK-912); conditions: 0.1 μM compound; read-out: Percentage inhibition of ligand binding, Adrenergic α2A
T4 construct: expressed in transfected cells; host or cells: insect Sf9 cells
T4 sequence (P08913 1-465): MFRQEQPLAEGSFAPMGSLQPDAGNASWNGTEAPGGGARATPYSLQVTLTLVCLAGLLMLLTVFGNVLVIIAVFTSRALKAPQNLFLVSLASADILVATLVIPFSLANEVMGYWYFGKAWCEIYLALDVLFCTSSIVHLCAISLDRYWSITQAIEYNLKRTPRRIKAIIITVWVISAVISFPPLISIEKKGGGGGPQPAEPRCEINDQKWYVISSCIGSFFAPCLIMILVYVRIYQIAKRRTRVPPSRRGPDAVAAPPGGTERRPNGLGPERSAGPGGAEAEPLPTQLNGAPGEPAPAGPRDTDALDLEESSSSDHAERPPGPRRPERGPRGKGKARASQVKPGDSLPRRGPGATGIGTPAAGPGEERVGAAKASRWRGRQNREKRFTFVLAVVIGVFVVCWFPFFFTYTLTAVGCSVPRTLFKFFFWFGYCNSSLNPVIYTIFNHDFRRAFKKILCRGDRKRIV
Outline: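 Sf9-expressed receptor was incubated with compound for 60 min at 25 °C in modified Tris-HCl buffer, pH 7.4. Nonspecific binding was taken as that remaining with 10 μM WB-4101.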

Compound | inhibition at 0.1 µM [1] [%] | inhibition at 0.1 µM [2] [%] | inhibition at 0.1 µM [3] [%] | inhibition at 0.1 µM [4] [%]
COc1cc(/C(C)=C/n2c3c(c4cc(C)ccc42)CN(C)CC3)ccn1 [compound 269] | 83 | 44 | 36 | 61
C/C(=C\n1c2c(c3cc(C)ccc31)CN(C)CC2)c1ccc2ccccc2c1 [compound 270] | 76 | 66 | 50 | 96
C/C(=C/n1c2c(c3cc(C)ccc31)CN(C)CC2)c1ccc2ccccc2c1 [compound 271] | 71 | 83 | 65 | 97
C/C(=C/n1c2c(c3cc(C)ccc31)CN(C)CC2)c1ccnn1C [compound 273] | 89 | 71 | 88 | 67
C=CCC1(C)CN(C)Cc2c1n(/C=C(\C)c1ccc(F)cc1)c1ccc(C)cc21 (stereo not shown) [compound 274, 4-allyl-5-[2-(4-fluoro-phenyl)-propenyl]-2,4,8-trimethyl-2,3,4,5-tetrahydro-1H-pyrido[4,3-b]indole] | 27 | 25 | 28 | 68
C/C(=C/n1c2c(c3cc(C)ccc31)CN(C)CC2)c1cnn(C)c1 [compound 275] | 94 | 61 | 75 | 51
C/C(=C/n1c2c(c3cc(C)ccc31)CN(C)CC2)c1ccc(F)nc1 [compound 276] | 101 | 81 | 86 | 71
C/C(=C/n1c2c(c3cc(C)ccc31)CN(C)CC2)c1ccc(C)s1 [compound 277] | 97 | 84 | 71 | 98
C/C(=C\n1c2c(c3cc(C)ccc31)CN(C)CC2)c1ccc(C)s1 [compound 278] | 98 | 44 | 62 | 93
C/C(=C/n1c2c(c3cc(C)ccc31)CN(C)CC2)c1cnc(N(C)C)nc1 [compound 279] | 92 | 93 | 79 | 90
CSc1ccc(/C(C)=C/n2c3c(c4cc(Cl)ccc42)CN(C)CC3)cc1 [compound 280] | 98 | 65 | 76 | 97
C/C(=C\n1c2c(c3cc(Cl)ccc31)CN(C)CC2)c1ccc(S(C)(=O)=O)cc1 [compound 281] | 90 | 47 | 67 | 72
C/C(=C\n1c2c(c3cc(C)ccc31)CN(C)CC2)c1ccc2[nH]cnc2c1 [compound 282] | 101 | 30 | 33 | 75
C/C(=C\n1c2c(c3cc(C)ccc31)CN(C)CC2)c1ccc2c(ccn2C)c1 [compound 283] | 89 | 46 | 63 | 90
C/C(=C/n1c2c(c3cc(C)ccc31)CN(C)CC2)c1ccc2ccn(C)c2c1 [compound 284] | 76 | 81 | 83 | 97
C/C(=C\n1c2c(c3cc(C)ccc31)CN(C)CC2)c1cc(C)cs1 [compound 285] | 97 | 71 | 63 | 98
C/C(=C/n1c2c(c3cc(C)ccc31)CN(C)CC2)c1cccc2ccccc12 [compound 286] | 60 | 19 | 26 | 80
C/C(=C/n1c2c(c3cc(C)ccc31)CN(C)CC2)c1sccc1C [compound 287] | 98 | 69 | 81 | 99
C/C(=C/n1c2c(c3cc(C)ccc31)CN(C)CC2)c1cccc2[nH]ncc12 [compound 290] | 96 | 79 | 90 | 80
C/C(=C/n1c2c(c3cc(C)ccc31)CN(C)CC2)c1cc(C)cs1 [compound 291] | 105 | 85 | 88 | 102
C/C(=C\n1c2c(c3cc(C)ccc31)CN(C)CC2)c1cncc2ccccc12 [compound 292] | 104 | 23 | 13 | 58
C/C(=C/n1c2c(c3cc(C)ccc31)CN(C)CC2)c1cc2ccccc2s1 [compound 293] | 93 | 82 | 73 | 96
Cc1ccc2c(c1)c1c(n2CCc2csc3ccccc23)CCN(C)C1 [compound 294, 5-(2-benzo[b]thiophen-3-yl-ethyl)-2,8-dimethyl-2,3,4,5-tetrahydro-1H-pyrido[4,3-b]indole] | 41 | 39 | 76 | 94
CSc1cccc(/C(C)=C/n2c3c(c4cc(Cl)ccc42)CN(C)CC3)c1 [compound 295] | 79 | 7 | 15 | 69
C/C(=C\n1c2c(c3cc(Cl)ccc31)CN(C)CC2)c1cccc(S(C)(=O)=O)c1 [compound 296] | 70 | 33 | 20 | 60
